PMC9220178, “Preclinical Characterization of Antioxidant Quinolyl Nitrone QN23 as a New Candidate for the Treatment of Ischemic Stroke” (Antioxidants, 2022)

Experiments:
[1] = tested on: male Wistar rats, transient middle cerebral artery occlusion (tMCAO); assay: Infarct and edema volume (TTC staining) in transient focal cerebral ischemia (tMCAO); format: in vivo, rat; conditions: 48 h after tMCAO
Method: For the transient focal cerebral ischemia experimental model we used 12-week-old male Wistar rats (300–350 g, Charles River), housed under standard conditions with food and water ad libitum. The animals were anesthetized by an intraperitoneal injection of a mixture of 100 mg/kg ketamine, 5 mg/kg diazepam, and 0.3 mg/kg atropine. Anesthesia was maintained during the surgical procedure by inhalation of 1–1.5% sevoflurane in 80% medicinal air plus 20% O2. For the transient occlusion of the right middle cerebral artery (tMCAO, 60 min), we followed the intraluminal suture procedure as originally described, adapted to our experimental setup. The procedure included continuous monitoring of cortical perfusion (CP, by Laser-Doppler flowmetry), arterial blood pressure, and core temperature, and discontinuous measurement of glycemia levels during preischemia (basal), ischemia, and reperfusion stages. Buprenorphine (subcutaneous, 0.05 mg/kg) was used as an analgesic. Forty-eight hours after the ischemic insult, the animals were euthanized by intracardiac injection of potassium chloride (200 mg/kg) under deep anesthesia, and the brains were obtained.
A power analysis (see above) provided a sample size of 6 subjects per group. A total of 35 animals was used in this study. […]
Brain infarct volume was determined by the 2,3,5-triphenyltetrazolium chloride (TTC; Sigma-Aldrich, Merck KGaA, Darmstadt, Germany) vital staining method, followed by morphometric analysis by a researcher blind to the treatment allocation. […] In order to correct for the influence of edema, the infarcted area was calculated as follows: corrected infarct area = infarct area × (contralateral hemisphere area / ipsilateral hemisphere area). The corrected infarct area was measured on both the anterior and the posterior sides of each slice and averaged; the corrected infarct volume was calculated by multiplying the average corrected infarct area by the thickness of the slice (2 mm), and the total corrected infarct volume by adding up the corrected infarct volume of the seven slices. […]

[2] = Solubility studies for the injection vehicle; format: physicochemical; conditions: ethanol/saline, 1:9 v/v; highest concentrations (for doses up to 2.5 mg/kg)
Method: In the following section, we describe the effect of different doses of QN23 (1.0, 1.5, 2.0, and 2.5 mg/kg) administered intravenously (see Materials and Methods, Section 2.2). In order to explore this wider range of concentrations, solubility studies were carried out before the in vivo experiments in order to assess a proper pharmacological formulation. For the highest concentrations, QN23 was not soluble in our usual ethanolic vehicle (ethanol/saline, 1:9 v/v). After exploration of different formulations able to provide a safe injection method, we got the desired concentrations using a vehicle of ethanol, polyethylene glycol 400, and saline (1:300:200, v/v). Using this vehicle, animals were treated intravenously with QN23 concentrations of 1.0, 1.5, 2.0, and 2.5 mg/kg as a single injection at the onset of the reperfusion period after transient cerebral ischemia. After five days of recovery (R5d), neuronal death, apoptosis, and neurodeficit score were determined (Figure 1 and Figure 2).

[3] = tested on: carrageenan-induced rat paw edema; design: method as in PMID 30715875; conditions: cited from earlier work

COc1ccc2nc(Cl)c(/C=[N+](\[O-])C(C)(C)C)cc2c1 [QN23, (Z)-N-tert-Butyl-1-(2-chloro-6-methoxyquinolin-3-yl)methanimine Oxide]
Brain damage (total infarct volume) compared with vehicle ([1]; 1.5 mg/kg and 2.5 mg/kg i.v.): significantly reduced brain damage | Edema volume compared with vehicle ([1]; 1.5 mg/kg and 2.5 mg/kg i.v.): reduced | Brain damage (total infarct volume) compared with vehicle ([1]; 4 mg/kg i.v.): not at 4 mg/kg | Solubility in ethanolic vehicle [2]: not soluble | Anti-inflammatory activity [3]: showed anti-inflammatory properties
